Square brackets hold non-standard residues; d marks the D form. Peptide text beside a SMILES is read from it. * marks the point of attachment. FITC = O=C1OC2(c3ccc(O)cc3Oc3cc(O)ccc32)c2ccc(NC(=S)*)cc21; Ahx = NCCCCCC(=O)O
Experiments:
E. coli B = format: cell-based, Escherichia coli B; conditions: 16 h
Experimental: (§1) In order to validate that the PEGylated AMPs are resistant to proteolysis, [3 + 2a] (2 kDa) was incubated in ∼90% human serum (final concentration) spiked with 0.01 wt% trypsin for up to 24 h. To prevent de-PEGylation during this incubation period (i.e., to test the protease-resistance of the conjugate rather than the released AMP (known to be degradable; vide infra)), the concentration of [3 + 2a] was maintained high, and a small excess of free 2a was kept in solution. Based on Fig. 2 and 4, these conditions promote the forward PEGylation reaction and disfavor de-PEGylation. Following the incubation period (1 h, 6 h, or 24 h), serum proteins and trypsin were removed to stop proteolysis, and the integrity of the AMP 3 within the conjugate was evaluated via its anti-proliferative effect on E. coli. […]
reaction by HPLC using the fluorescence detector. Kinetics were monitored in triplicate. […]
To determine peptide content, a known mass of conjugate was dissolved in 500 µL D2O, and the absorbance of the solution at 452 nm (the FITC dye on the peptide) was compared to a standard curve obtained with the pure peptide. Then, to deter mine the number of moles of mPEG within this solution, a small amount (5 µL) of dimethyl sulfoxide was quantitatively added to a known volume of the D2O solution, and a 1H NMR spectrum recorded. […]

trypsin = assay: Resistance to proteolysis in human serum spiked with trypsin, read out by antibacterial activity; format: in vitro ADME; conditions: ∼90% human serum with 0.01 wt% trypsin, r.t.; read-out anti-proliferative effect on E. coli
Experimental: as §1
[…] 5 h t o obtain mid-logarithmic phase organisms (10^9 cfu· mL –1). […] After this period, proteins were immediately removed by addition of 1.5 mL acetonitrile, sedimentation of precipitate by centrifugation, quantitative recovery of the supernatant, and drying by freeze-drying (FreeZone 4.5, Labconco). […] After addition of analyte to the w el l, the mi cr op lat e was in cub at ed at 37 °C for 16 h with shaking, and growth inhibition was determined by measuring absorbance at 620 nm using a Cytation 5 multi- mode microplate reader (BioTek Inc., VT). […]

Compound: CC[C@@H](C)[C@@H](NC(=O)[C@H](CCCNC(=N)N)NC(=O)[C@H](CCC(N)=O)NC(=O)[C@@H](NC(=O)[C@H](NC(=O)[C@H](CCCNC(=N)N)NC(=O)[C@H](CCCCN)NC(=O)[C@H](Cc1ccccc1)NC(=O)CNC(=O)CCCCCNC(=S)Nc1ccc2c(c1)C(=O)OC21c2ccc(O)cc2Oc2cc(O)ccc21)[C@H](C)CC)C(C)C)C(=O)N[C@@H](CCCCN)C(=O)N[C@@H](CC(=O)O)C(=O)N[C@@H](Cc1ccccc1)C(=O)N[C@H](CC(C)C)C(=O)N[C@@H](CCCNC(=N)N)C(=O)N[C@@H](CC(N)=O)C(=O)N[C@@H](CC(C)C)C(=O)N[C@H](C(N)=O)C(C)C [compound 3] ({FITC-Ahx}-GFKR[dI]VQR[dI]KDF[dL]RNLV-NH2)
- IC50 (E. coli B): 8 ± 5 µM
- Time to loss of antimicrobial properties in trypsin-spiked serum (trypsin): less than 6 h
